The source of these data is patent US12152060B2, “Interleukin-2 variants and methods of uses thereof” (Cugene Inc, priority 2018, dated 2024).

Test [1] deals with T1, non-covalent complex of IL-2Rβ-ECD (NP_000869) and γc-ECD (NP_000197) (Homo sapiens, UniProt P14784+P31785).
T1 construct: non-covalent complex of IL-2Rβ-ECD (NP_000869) and γc-ECD (NP_000197)
T1 sequence (P14784 27-240 limits assumed): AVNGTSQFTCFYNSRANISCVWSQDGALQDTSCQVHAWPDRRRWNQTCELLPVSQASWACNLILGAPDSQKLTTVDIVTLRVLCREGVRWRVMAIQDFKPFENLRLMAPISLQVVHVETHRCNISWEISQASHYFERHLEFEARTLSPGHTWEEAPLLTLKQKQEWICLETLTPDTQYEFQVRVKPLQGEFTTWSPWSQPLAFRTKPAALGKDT
T1 sequence (P31785 23-262 limits assumed): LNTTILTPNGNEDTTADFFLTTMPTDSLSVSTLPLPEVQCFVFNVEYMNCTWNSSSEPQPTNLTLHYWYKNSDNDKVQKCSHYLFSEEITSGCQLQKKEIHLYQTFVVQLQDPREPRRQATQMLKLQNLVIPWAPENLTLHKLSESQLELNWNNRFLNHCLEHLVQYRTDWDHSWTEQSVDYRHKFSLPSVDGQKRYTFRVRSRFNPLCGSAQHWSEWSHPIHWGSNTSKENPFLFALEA
Kind of test: ELISA binding to IL-2Rβ and γc complex. On the procedure: Briefly, non-covalent complex of IL-2Rβ-ECD (NP_000869) and γc-ECD (NP_000197) through heterodimeric Fc chains was coated onto the wells of Nunc Maxisorp 96-well microplates at 2 μg/well. After overnight incubation at 4° C. and blocking with superblock (ThermoFisher), 3-fold serial dilutions of IL-2 Fc fusion proteins starting at either 100 or 270 nM were added to each well at 100 μl/well. Following a one-hour incubation at room temperature, biotin mouse anti-human IL-2 Ab (BD BioSciences) at 1 μg/ml was added to each well followed by incubation with HRP-Avidin (ThermoFisher) at 1 μg/ml for 1 hour. Wells were thoroughly aspirated and washed three times with PBS/0.05% Tween-20 following each step. Finally, 100 μl TMB substrate was added to each well; the plate was developed at room temperature in the dark for 10 minutes, and 100 μl/well of stop solution (2N Sulfuric acid, Ricca Chemical) was added. Absorbance was determined at 450 nm; curves were fit using Prism software (GraphPad) and illustrated in FIG. 11E.

Test [2] has as its system regulatory T cells (CD4+CD25+FoxP3+ T cells), effector T cells and NK cells. Kind of test: Treg versus effector T and NK cell proliferation and expansion in mice after a single subcutaneous injection. The test is classed as in vivo, mouse. Particulars: 0.3 mg/kg s.c. single dose, C57/BL6 mice. On the procedure:
IL-2 variant Fc fusion proteins were administered to mice and their ability to preferentially proliferate and expand regulatory T cells (CD4+CD25+FoxP3+ T cells) over effector T cells and NK cells were determined in vivo.
Female C57/BL6 mice (7-week old) were received from Charles River Laboratory and acclimated in house for at least 7 days before the study. Vehicle (PBS), 0.3 mg/kg of each test compounds, or IL-2 benchmark compounds were subcutaneously administered to mice on day 0. Peripheral blood samples were collected into heparin-treated tubes on days 3, 5 and 7 post-treatment. Each group contained 6 mice and baseline blood was collected 2 days prior to the treatment (day-2). After red blood cell lysis, total viable mononuclear blood cells were counted by trypan blue dead cell exclusion method and proceeded to intracellular staining for immune cell phenotype and Ki67 proliferation markers using flow cytometric analysis. Cells were stained separately with two panels of antibodies as listed: 1) anti-mouse Foxp3-FITC, Ki67-PE, anti-mouse CD25-APC and anti-mouse CD4-Percpcy5.5 (1:50 dilution) for CD4+T-regulatory cells (Treg); 2) anti-mouse CD3-FITC, Ki67-PE, anti-mouse CD335-APC and anti-mouse CD8-Percpcy5.5 (1:50 dilution) for CD8+T and NK cells.

Take “P-0511: Fc fusion protein of IL-2 variant L19H/S125I/Q126E; SEQ ID NO: 198”: the “EC50, binding to IL-2Rβ and γc complex (ELISA)” value in test [1] is given as “did not show appreciable binding”. Besides, in test [2], the “Ki67 stimulation on CD8 T cells and NK cells” value is listed as “mild Ki67 stimulation”; the “expansion of CD4+ Tconv cells, CD8 T cells or NK cells” value was “No significant expansion”. Besides, in test [2] (days 3, 5, 7), the “Treg cell proliferation and expansion (Ki67 positive Treg, % Treg over CD4+ T cells or lymphocytes)” value is on record as “stronger in vivo efficacy”.
